US5216005A, “Immunosuppressive analogues and derivatives of succinylacetone” (priority 1990, dated 1993)

Experiments:
[1] = system: human lymphoid cells; assay: tritiated thymidine uptake in secondary mixed lymphocyte reaction; type: cell-based; settings: 2°-MLR; for inhibition at 740 µM / inhibition at 2200 µM / inhibition at 6700 µM / inhibition at 20000 µM: Homo sapiens, Lymphocyte
Description: In addition to testing the immunosuppressive activities of succinylacetone derivatives in a primary mixed lymphocyte reaction, or a phytohemagglutinin stimulation assay, two of the derivatives, succinylacetone methyl ester and methyl 4-acetyl-5-oxohexanoate, were tested in a secondary mixed lymphocyte reaction assay. The secondary mixed lymphocyte assays differs from the primary mixed lymphocyte reaction assays in that they employ many more primed responder cells that are responsive to the primary stimulating cells. The presence of such responsive cells is a reflection of immunological memory in an ongoing immunological response. […] These cells are then used in the secondary mixed lymphocyte reaction. It is worth noting that because a secondary mixed lymphocyte reaction is greatly enriched for responsive cells, fewer cells can be used in the secondary assay.
It will be appreciated that described therein is a method for carrying out secondary lymphocyte reactions using mouse cells, however such methods are generally applicable to performing secondary mixed lymphocyte reactions using human cells with modifications that are well known to those skilled in the art. […] The assays were conducted in duplicate involving lymphoid cells isolated from two individuals.

[2] = system: human lymphocytes; assay: phytohemagglutinin (PHA) stimulation assay, tritiated thymidine uptake; type: cell-based; settings: for IC50: Homo sapiens, Lymphocyte, read-out: concentration causing 50% inhibition of PHA stimulation
Description: A second assay widely used to study immune responsiveness is mitogenic stimulation of thymocytes with antigenic substances of plant origin. The most widely used plant molecule is phytohemagglutinin (PHA).
The procedure for carrying out the phytohaemagglutinin assay is also well known to those skilled in the art. Briefly, it consists of isolating human lymphocytes as described above, and incubating about 1.0×10^6 cells per ml in a suitable physiological solution with phytohaemagglutinin, and the appropriate concentration of succinylacetone-proline-NH-PEG. Tritiated thymidine is added 48 hours later and allowed to incubate for twenty-four hours before the cells are counted.

[3] = viability of peripheral blood lymphocytes with or without PHA, trypan blue exclusion; type: cell-based, human; settings: human, peripheral blood lymphocytes; for viability at 2200 µM: 2.2 mM; for viability at 6700 µM: 6.7 mM; for viability at 20000 µM: 20 mM
Description: Viability was determined using the trypan blue exclusion method well known in the art. […] The assays were conducted in duplicate wherein peripheral blood lymphocytes were isolated from two separate individuals, and then treated with or without phytohemagglutinin in the presence of various concentrations of the appropriate succinylacetone derivative.

[4] = system: human lymphocytes; assay: tritiated thymidine uptake in primary mixed lymphocyte reaction; type: cell-based; settings: for CPM ± SD: 1° MLR
Source text: The in vitro mixed lymphocyte assay described below is presently employed in the clinical setting as an indicator of histocompatibility, and is premised on the transformation of resting genetically dissimilar lymphocytes into cells which synthesize DNA and undergo proliferation.
The mixed lymphocyte reaction assay can be carried out by techniques well known to those skilled in the art. L. Hudson and F. C. Huy, Practical Immunology, p. 260, Blackwell Scientific Publications (1976). Briefly this consists of isolating lymphocytes from human peripheral blood by standard density gradient centrifugation techniques from two separate individuals. Approximately 2×10^5 lymphocytes of each individual are combined to yield a total of 4×10^5 lymphocytes per culture. All procedures are carried out under sterile conditions, and the lymphocytes are isolated and kept in physiologically compatible solutions. To the mixture of lymphocytes is added a desired amount of an appropriate succinylacetone derivative, and after different times an aliquot of the mixture is removed and assayed for IL-2 or IFN-γ, or ^3 H-T is measured.
As mentioned above, one measure of an immune response as reflected in a mixed lymphocyte assay is the stimulation of DNA synthesis, and a concomitant increase in cell number. Thus, to further ascertain the immunosuppressive activity of succinylacetonyl-proline-NH-PEG, its effect on inhibition of thymocyte growth, as detected by uptake of tritiated thymidine, was assayed.

Molecule `COC(=O)CCC(=O)CC(C)=O` [Succinylacetone Methyl Ester, methyl 4-6-dioxoheptanoate] has a CPM ([1]; Exp I, 247 μM) of 87337 CPM, a CPM ([1]; Exp I, 740 μM) of 67456 CPM and a CPM ([1]; Exp I, 2.2 mM) of 11778 CPM. The CPM ([1]; Exp I, 6.7 mM) was 51 CPM, the CPM ([1]; Exp I, 20 mM) was 64 CPM and the CPM ([1]; Exp II, 247 μM) was 125345 CPM. The CPM ([1]; Exp II, 740 μM) was 85447 CPM, the CPM ([1]; Exp II, 2.2 mM) was 29851 CPM and the CPM ([1]; Exp II, 6.7 mM) was 62 CPM. For the same molecule, the CPM ([1]; Exp II, 20 mM) was 87 CPM, the inhibition at 740 µM ([1]; Exp I, 740 μM) was 16.3% and the inhibition at 2200 µM ([1]; Exp I, 2.2 mM) was 85.4%. The inhibition at 6700 µM ([1]; Exp I, 6.7 mM) was 9.99%, the inhibition at 20000 µM ([1]; Exp I, 20 mM) was 99.9% and the inhibition at 740 µM ([1]; Exp II, 740 μM) was 8.5%. For the same molecule, the inhibition at 2200 µM ([1]; Exp II, 2.2 mM) was 68%, the inhibition at 6700 µM ([1]; Exp II, 6.7 mM) was 9.99% and the inhibition at 20000 µM ([1]; Exp II, 20 mM) was 99.9%. For the same molecule, the IC50 ([2]; one assay) was 103 to 309 µM, the IC50 ([2]; second assay) was about 103 µM and the “PHA stimulation, cpm ± SD” value ([2]; first experiment, 3.8 μM) was 20292 cpm. The “PHA stimulation, cpm ± SD” value ([2]; first experiment, 11 μM) was 18100 cpm, the “PHA stimulation, cpm ± SD” value ([2]; first experiment, 34 μM) was 16549 cpm and the “PHA stimulation, cpm ± SD” value ([2]; first experiment, 103 μM) was 17595 cpm. For the same molecule, the “PHA stimulation, cpm ± SD” value ([2]; first experiment, 309 μM) was 5927 cpm, the “PHA stimulation, cpm ± SD” value ([2]; first experiment, 962 μM) was 565 cpm and the “PHA stimulation, cpm ± SD” value ([2]; first experiment, 2.8 mM) was 126 cpm. The “PHA stimulation, cpm ± SD” value ([2]; first experiment, 25 mM) was 113 cpm, the “PHA stimulation, cpm ± SD” value ([2]; first experiment, 83 mM) was 79 cpm and the “PHA stimulation, cpm ± SD” value ([2]; second experiment, 3.8 μM) was 37936 cpm. The “PHA stimulation, cpm ± SD” value ([2]; second experiment, 11 μM) was 28645 cpm, the “PHA stimulation, cpm ± SD” value ([2]; second experiment, 34 μM) was 28614 cpm and the “PHA stimulation, cpm ± SD” value ([2]; second experiment, 103 μM) was 17733 cpm. For the same molecule, the “PHA stimulation, cpm ± SD” value ([2]; second experiment, 309 μM) was 5292 cpm, the “PHA stimulation, cpm ± SD” value ([2]; second experiment, 962 μM) was 6949 cpm and the “PHA stimulation, cpm ± SD” value ([2]; second experiment, 2.8 mM) was 65 cpm. For the same molecule, the “PHA stimulation, cpm ± SD” value ([2]; second experiment, 25 mM) was 112 cpm, the “PHA stimulation, cpm ± SD” value ([2]; second experiment, 83 mM) was 107 cpm and the viability ([3]; between 2.2 mM and 733 μM) was about 100%. The viability at 3 µM ([3]; first individual, (+) PHA) was 100%, the viability at 9 µM ([3]; first individual, (+) PHA) was 100% and the viability at 27 µM ([3]; first individual, (+) PHA) was 97%. The viability at 81 µM ([3]; first individual, (+) PHA) was 96%, the viability at 244 µM ([3]; first individual, (+) PHA) was 97% and the viability at 733 µM ([3]; first individual, (+) PHA) was 90%. It also gave a viability at 2200 µM ([3]; first individual, (+) PHA) of 89%, a viability at 6700 µM ([3]; first individual, (+) PHA) of 8% and a viability at 20000 µM ([3]; first individual, (+) PHA) of 0%. For the same molecule, the viability at 3 µM ([3]; first individual, (-) PHA) was 100%, the viability at 9 µM ([3]; first individual, (-) PHA) was 100% and the viability at 27 µM ([3]; first individual, (-) PHA) was 100%. It also gave a viability at 81 µM ([3]; first individual, (-) PHA) of 100%, a viability at 244 µM ([3]; first individual, (-) PHA) of 100% and a viability at 733 µM ([3]; first individual, (-) PHA) of 96%. For the same molecule, the viability at 2200 µM ([3]; first individual, (-) PHA) was 94%, the viability at 6700 µM ([3]; first individual, (-) PHA) was 7% and the viability at 20000 µM ([3]; first individual, (-) PHA) was 0%. For the same molecule, the viability at 3 µM ([3]; second individual, (+) PHA) was 100%, the viability at 9 µM ([3]; second individual, (+) PHA) was 100% and the viability at 27 µM ([3]; second individual, (+) PHA) was 94%. For the same molecule, the viability at 81 µM ([3]; second individual, (+) PHA) was 98%, the viability at 244 µM ([3]; second individual, (+) PHA) was 96% and the viability at 733 µM ([3]; second individual, (+) PHA) was 94%. For the same molecule, the viability at 2200 µM ([3]; second individual, (+) PHA) was 93%, the viability at 6700 µM ([3]; second individual, (+) PHA) was 6% and the viability at 20000 µM ([3]; second individual, (+) PHA) was 0%. The viability at 3 µM ([3]; second individual, (-) PHA) was 100%, the viability at 9 µM ([3]; second individual, (-) PHA) was 100% and the viability at 27 µM ([3]; second individual, (-) PHA) was 100%. The viability at 81 µM ([3]; second individual, (-) PHA) was 100%, the viability at 244 µM ([3]; second individual, (-) PHA) was 98% and the viability at 733 µM ([3]; second individual, (-) PHA) was 95%. It also gave a viability at 2200 µM ([3]; second individual, (-) PHA) of 94%, a viability at 6700 µM ([3]; second individual, (-) PHA) of 4% and a viability at 20000 µM ([3]; second individual, (-) PHA) of 0%. For the same molecule, the “CPM ± SD” value ([4]; Exp I, 3 μM) was 81740 CPM, the “CPM ± SD” value ([4]; Exp I, 9 μM) was 87101 CPM and the “CPM ± SD” value ([4]; Exp I, 27 μM) was 75211 CPM. The “CPM ± SD” value ([4]; Exp I, 81 μM) was 80182 CPM, the “CPM ± SD” value ([4]; Exp I, 244 μM) was 66159 CPM and the “CPM ± SD” value ([4]; Exp I, 733 μM) was 30535 CPM. For the same molecule, the “CPM ± SD” value ([4]; Exp I, 2.2 mM) was 3185 CPM, the “CPM ± SD” value ([4]; Exp I, 6.7 mM) was 89 CPM and the “CPM ± SD” value ([4]; Exp I, 20 mM) was 164 CPM. For the same molecule, the “CPM ± SD” value ([4]; Exp II, 3 μM) was 114428 CPM, the “CPM ± SD” value ([4]; Exp II, 9 μM) was 110425 CPM and the “CPM ± SD” value ([4]; Exp II, 27 μM) was 97879 CPM. For the same molecule, the “CPM ± SD” value ([4]; Exp II, 81 μM) was 87595 CPM, the “CPM ± SD” value ([4]; Exp II, 244 μM) was 78306 CPM and the “CPM ± SD” value ([4]; Exp II, 733 μM) was 40700 CPM. For the same molecule, the “CPM ± SD” value ([4]; Exp II, 2.2 mM) was 33497 CPM, the “CPM ± SD” value ([4]; Exp II, 6.7 mM) was 126 CPM and the “CPM ± SD” value ([4]; Exp II, 20 mM) was 90 CPM. The IC50 ([4]; Homo sapiens, Lymphocyte, read-out: concentration for 50% reduction in thymidine uptake) was about 733 µM.
